Test system: 922993-354-T-J3-PDC complex spheroids, viability
Test: Anticancer human tumor 922993-354-T-J3-PDC patient-derived endometrial carcinoma cell line growth inhibition [GQUAD]
Settings: for IC50: curve of first compound; for viability, T/C: stronger effect = lower value
How it was run: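 Tumor cells were grown as complex spheroids with HUVEC endothelial cells and mesenchymal stem cells as stroma. G-quadruplex stabilizers were combined with targeted agents over half-log dilutions from near the clinical Cmax, or from 10 microM.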
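Note: spheroids exposed to compounds for seven days.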
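Throughout, for viability, T/C: 100% = DMSO vehicle control viability.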

## COc1ncnc(C2CC2)c1-c1ncc2cnn(Cc3ccc(-c4nc(C(F)(F)F)cn4C(C)C)cc3)c2n1 + Cc1cnc(CNC(=O)c2c(=O)c3ccc(N4CCCN(C)CC4)nc3n3c2sc2ccccc23)cn1
Second compound 0.0316 µM
  IC50: > 10 µM
Second compound 0.1 µM
  IC50: > 10 µM
Second compound 0.316 µM
  IC50: < 0.0316 µM
Second compound 1 µM
  IC50: < 0.0316 µM
Second compound 3.16 µM
  IC50: < 0.0316 µM
Second compound 10 µM
  IC50: 3.23 µM
Second compound 0.0316 µM, first compound 0.0316 µM
  viability, T/C: 98.1%
Second compound 0.0316 µM, first compound 0.1 µM
  viability, T/C: 72.7%
Second compound 0.0316 µM, first compound 0.316 µM
  viability, T/C: 80.5%
Second compound 0.0316 µM, first compound 1 µM
  viability, T/C: 48.3%
Second compound 0.0316 µM, first compound 3.16 µM
  viability, T/C: 59%
Second compound 0.0316 µM, first compound 10 µM
  viability, T/C: 63.4%
Second compound 0.1 µM, first compound 0.0316 µM
  viability, T/C: 67.8%
Second compound 0.1 µM, first compound 0.1 µM
  viability, T/C: 44.2%
Second compound 0.1 µM, first compound 0.316 µM
  viability, T/C: 45.6%
Second compound 0.1 µM, first compound 1 µM
  viability, T/C: 44.3%
Second compound 0.1 µM, first compound 3.16 µM
  viability, T/C: 51.4%
Second compound 0.1 µM, first compound 10 µM
  viability, T/C: 70.4%
Second compound 0.316 µM, first compound 0.0316 µM
  viability, T/C: 41%
Second compound 0.316 µM, first compound 0.1 µM
  viability, T/C: 34.5%
Second compound 0.316 µM, first compound 0.316 µM
  viability, T/C: 41.8%
Second compound 0.316 µM, first compound 1 µM
  viability, T/C: 49.3%
Second compound 0.316 µM, first compound 3.16 µM
  viability, T/C: 51.3%
Second compound 0.316 µM, first compound 10 µM
  viability, T/C: 52.7%
Second compound 1 µM, first compound 0.0316 µM
  viability, T/C: 44.5%
Second compound 1 µM, first compound 0.1 µM
  viability, T/C: 44.6%
Second compound 1 µM, first compound 0.316 µM
  viability, T/C: 41.6%
Second compound 1 µM, first compound 1 µM
  viability, T/C: 46.3%
Second compound 1 µM, first compound 3.16 µM
  viability, T/C: 54.9%
Second compound 1 µM, first compound 10 µM
  viability, T/C: 67.1%
Second compound 3.16 µM, first compound 0.0316 µM
  viability, T/C: 40.9%
Second compound 3.16 µM, first compound 0.1 µM
  viability, T/C: 41.7%
Second compound 3.16 µM, first compound 0.316 µM
  viability, T/C: 50.3%
Second compound 3.16 µM, first compound 1 µM
  viability, T/C: 49.2%
Second compound 3.16 µM, first compound 3.16 µM
  viability, T/C: 43%
Second compound 3.16 µM, first compound 10 µM
  viability, T/C: 55.7%
Second compound 10 µM, first compound 0.0316 µM
  viability, T/C: 48.6%
Second compound 10 µM, first compound 0.1 µM
  viability, T/C: 47.7%
Second compound 10 µM, first compound 0.316 µM
  viability, T/C: 52.6%
Second compound 10 µM, first compound 1 µM
  viability, T/C: 49%
Second compound 10 µM, first compound 3.16 µM
  viability, T/C: 53.3%
Second compound 10 µM, first compound 10 µM
  viability, T/C: 40.1%

— PubChem BioAssay AID2060489 (Molecular Pharmacology Branch, DTP, NCI, 2025)
